From US11739064B2, “HDAC inhibitors and therapeutic methods using the same” (THE BOARD OF TRUSTEES OF THE UNIVERSITY OF ILLINOIS, priority 2015, dated 2023)
Where two headings read alike, the source gives them in different places.

Assays:
[1] = molecular target: T1, Human HDAC6 (Homo sapiens, UniProt Q9UBN7); experiment: In vitro HDAC inhibition assay, HDAC6; assay type: biochemical; conditions: read-out: HDAC isoform IC50, HDAC6
T1 construct: Full length with N-terminal GST tag, MW=159 kDa; GST (N); host or cells: baculovirus expression system, Sf9 cells
T1 sequence (Q9UBN7 1-1215): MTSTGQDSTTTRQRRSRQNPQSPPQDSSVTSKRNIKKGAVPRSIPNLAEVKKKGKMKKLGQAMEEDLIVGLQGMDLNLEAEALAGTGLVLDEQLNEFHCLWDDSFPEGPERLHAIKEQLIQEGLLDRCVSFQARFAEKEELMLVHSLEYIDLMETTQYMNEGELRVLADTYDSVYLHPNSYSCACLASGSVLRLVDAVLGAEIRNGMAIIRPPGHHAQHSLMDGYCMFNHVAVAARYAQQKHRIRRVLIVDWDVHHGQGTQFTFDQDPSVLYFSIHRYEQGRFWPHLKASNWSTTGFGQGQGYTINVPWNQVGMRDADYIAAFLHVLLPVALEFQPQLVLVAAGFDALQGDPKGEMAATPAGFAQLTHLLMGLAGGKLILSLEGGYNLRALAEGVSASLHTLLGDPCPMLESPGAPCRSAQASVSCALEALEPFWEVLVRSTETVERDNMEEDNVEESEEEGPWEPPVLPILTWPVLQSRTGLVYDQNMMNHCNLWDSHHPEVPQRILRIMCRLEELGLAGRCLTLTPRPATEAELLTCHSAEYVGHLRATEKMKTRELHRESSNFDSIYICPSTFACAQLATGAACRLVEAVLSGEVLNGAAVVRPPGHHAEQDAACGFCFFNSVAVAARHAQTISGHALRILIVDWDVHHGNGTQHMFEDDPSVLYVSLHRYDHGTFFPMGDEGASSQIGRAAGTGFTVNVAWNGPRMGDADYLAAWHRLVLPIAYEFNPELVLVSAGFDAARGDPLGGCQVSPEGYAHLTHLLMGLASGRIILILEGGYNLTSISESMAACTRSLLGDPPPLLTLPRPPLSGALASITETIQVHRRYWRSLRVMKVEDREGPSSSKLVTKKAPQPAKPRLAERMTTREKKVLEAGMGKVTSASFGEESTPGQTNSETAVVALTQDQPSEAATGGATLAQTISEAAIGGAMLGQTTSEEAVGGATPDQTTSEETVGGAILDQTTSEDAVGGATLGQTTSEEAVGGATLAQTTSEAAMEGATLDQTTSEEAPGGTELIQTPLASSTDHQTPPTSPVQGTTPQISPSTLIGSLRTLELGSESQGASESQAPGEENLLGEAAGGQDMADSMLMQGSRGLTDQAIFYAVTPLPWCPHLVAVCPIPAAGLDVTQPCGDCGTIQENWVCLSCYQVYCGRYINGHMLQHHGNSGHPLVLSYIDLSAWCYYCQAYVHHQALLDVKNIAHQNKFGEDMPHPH

[2] = molecular target: HDAC3/NcoR2 complex (Homo sapiens, UniProt O15379); experiment: In vitro HDAC inhibition assay, HDAC3; assay type: biochemical; conditions: NI = No inhibition at a concentration of 50 pM (footnote b); read-out: HDAC isoform IC50, HDAC3
[3] = test system: L3.6pl; experiment: In vitro growth inhibition (GI), MTS cell proliferation assay (Table 5), L3.6pl; assay type: cell-based; conditions: Homo sapiens, 72 hours post-treatment
[4] = molecular target: HDAC2 (Homo sapiens, UniProt Q92769); experiment: In vitro HDAC inhibition assay, HDAC2; assay type: biochemical; conditions: NI = No inhibition at a concentration of 50 pM (footnote b); read-out: HDAC isoform IC50, HDAC2
[5] = molecular target: T2, HDAC10 (Homo sapiens, UniProt Q969S8); experiment: In vitro HDAC inhibition assay, HDAC10; assay type: biochemical; conditions: NI = No inhibition at a concentration of 50 pM (footnote b); read-out: HDAC isoform IC50, HDAC10
T2 sequence (Q969S8 1-669): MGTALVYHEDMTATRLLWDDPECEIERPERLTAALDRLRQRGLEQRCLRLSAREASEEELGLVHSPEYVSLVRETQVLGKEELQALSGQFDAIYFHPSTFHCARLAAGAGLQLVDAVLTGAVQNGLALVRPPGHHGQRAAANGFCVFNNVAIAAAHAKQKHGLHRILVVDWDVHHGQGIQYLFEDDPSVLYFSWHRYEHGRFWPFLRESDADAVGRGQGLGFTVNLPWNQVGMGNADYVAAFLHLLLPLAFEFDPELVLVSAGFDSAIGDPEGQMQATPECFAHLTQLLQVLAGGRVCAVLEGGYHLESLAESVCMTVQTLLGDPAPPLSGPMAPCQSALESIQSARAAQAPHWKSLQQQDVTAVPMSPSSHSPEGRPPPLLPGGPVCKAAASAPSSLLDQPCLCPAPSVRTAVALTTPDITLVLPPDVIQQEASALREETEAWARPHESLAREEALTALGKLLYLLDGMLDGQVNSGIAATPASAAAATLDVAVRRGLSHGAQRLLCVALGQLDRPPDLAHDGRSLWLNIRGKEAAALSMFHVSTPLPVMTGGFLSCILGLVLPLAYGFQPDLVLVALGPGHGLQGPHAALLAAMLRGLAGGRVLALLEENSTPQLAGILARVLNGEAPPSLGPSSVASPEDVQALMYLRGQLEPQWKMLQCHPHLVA

[6] = molecular target: Human HDAC1 (Homo sapiens, UniProt Q13547); experiment: In vitro HDAC inhibition assay, HDAC1
[7] = test system: BxPC3; experiment: In vitro growth inhibition (GI), MTS cell proliferation assay (Table 5), BxPC3; assay type: cell-based; conditions: Homo sapiens, BXPC-3, 72 hours post-treatment
[8] = test system: PANC1 cells; experiment: Scratch-wound cell migration assay; assay type: cell-based; set-up: key to Inhibition of cell migration, 24 h / Inhibition of cell migration, 48 h: Level of inhibition (high to low): +++, ++ or +; Level of inhibition (high to low): +++, ++ or +; Level of inhibition (high to low): +++, ++ or +; no inhibition: −; conditions: for Inhibition of cell migration, 24 h: PANC1, 24 h post wounding; for Inhibition of cell migration, 48 h: PANC1, 48 h post wounding
Description: FIG. 2 contains photographs of PANC1 cells treated with present compounds 9 and 6 taken 24 and 48 hours (post wounding) after a scratch was made through a confluent layer of cells; and
PANC1 Cell migration and effect on T and NK Cells. The effect of HDAC6 inhibition on cell migration and cellular cytotoxicity was evaluated. […] Thus, these HDAC6-selective inhibitors could function well to block metastasis. However, in contrast to the effect observed on cell migration, none of the compounds tested affected CD8+ T cell or natural killer (NK) cell-mediated cytotoxicity, despite the ability of the compounds to substantially increase the levels of acetyl-tubulin in these cell lines.

[9] = test system: acetylated alpha-tubulin; experiment: Accumulation of acetylated alpha-tubulin in pancreatic cancer cells; assay type: cell-based; conditions: FIG. 1A
Text: Cell cycle and inhibition of alpha-tubulin deacetylation.

[10] = read-out: HDAC isoform IC50, HDAC1, NI = No inhibition at a concentration of 50 pM (footnote b)

Human HDAC1, sequence (Q13547 whole entry): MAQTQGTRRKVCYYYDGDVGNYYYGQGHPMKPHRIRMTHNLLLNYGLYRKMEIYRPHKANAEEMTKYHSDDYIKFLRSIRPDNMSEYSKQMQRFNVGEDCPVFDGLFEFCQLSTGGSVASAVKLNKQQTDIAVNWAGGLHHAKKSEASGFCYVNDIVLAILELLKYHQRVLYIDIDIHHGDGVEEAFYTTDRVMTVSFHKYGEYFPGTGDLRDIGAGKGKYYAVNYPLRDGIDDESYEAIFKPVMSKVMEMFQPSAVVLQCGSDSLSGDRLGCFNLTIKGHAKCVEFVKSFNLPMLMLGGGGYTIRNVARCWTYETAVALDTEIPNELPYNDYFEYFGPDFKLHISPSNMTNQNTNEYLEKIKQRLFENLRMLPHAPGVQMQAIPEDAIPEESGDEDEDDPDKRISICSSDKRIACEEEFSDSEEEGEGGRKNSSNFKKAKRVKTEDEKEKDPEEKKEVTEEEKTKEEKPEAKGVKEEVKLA
HDAC2, sequence (Q92769 whole entry, canonical isoform): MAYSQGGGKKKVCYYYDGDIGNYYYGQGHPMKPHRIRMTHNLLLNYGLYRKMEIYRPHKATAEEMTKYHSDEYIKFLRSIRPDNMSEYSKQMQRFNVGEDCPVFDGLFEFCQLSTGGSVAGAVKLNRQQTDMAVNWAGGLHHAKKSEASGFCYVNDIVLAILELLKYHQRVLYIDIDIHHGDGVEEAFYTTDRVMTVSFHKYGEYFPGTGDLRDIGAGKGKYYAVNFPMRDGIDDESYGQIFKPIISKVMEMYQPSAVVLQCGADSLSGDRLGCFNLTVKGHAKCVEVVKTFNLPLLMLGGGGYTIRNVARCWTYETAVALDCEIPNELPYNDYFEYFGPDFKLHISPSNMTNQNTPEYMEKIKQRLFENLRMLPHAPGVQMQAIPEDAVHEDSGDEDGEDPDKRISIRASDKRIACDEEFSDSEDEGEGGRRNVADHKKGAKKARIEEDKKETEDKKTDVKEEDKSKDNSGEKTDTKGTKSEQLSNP
HDAC3/NcoR2 complex, sequence (O15379 whole entry, canonical isoform): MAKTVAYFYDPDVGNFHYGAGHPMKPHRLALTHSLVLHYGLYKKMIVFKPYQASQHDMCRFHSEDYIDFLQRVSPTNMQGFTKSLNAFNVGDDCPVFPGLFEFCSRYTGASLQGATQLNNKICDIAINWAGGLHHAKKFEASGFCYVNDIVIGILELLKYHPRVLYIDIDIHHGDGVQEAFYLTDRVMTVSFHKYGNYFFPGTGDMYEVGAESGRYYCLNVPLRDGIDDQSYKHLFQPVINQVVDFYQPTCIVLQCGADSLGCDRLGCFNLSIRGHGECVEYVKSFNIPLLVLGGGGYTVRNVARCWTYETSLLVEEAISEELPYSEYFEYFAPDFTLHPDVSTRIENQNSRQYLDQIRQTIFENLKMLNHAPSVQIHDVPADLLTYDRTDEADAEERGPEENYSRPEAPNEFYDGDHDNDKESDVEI
HDAC3/NcoR2 complex, sequence (Q9Y618 395-489 partner limits assumed): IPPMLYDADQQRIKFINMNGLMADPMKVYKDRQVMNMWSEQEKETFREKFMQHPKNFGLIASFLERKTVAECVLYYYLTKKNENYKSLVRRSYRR

Row | IC50 [1] | IC50 [2] | IC50 [4] | IC50 [5] | IC50 [6, 10] | GI50 [7] | IC50 [6] | Compound | GI50 [3] | Inhibition of cell migration, 24 h [8] | Inhibition of cell migration, 48 h [8] | Accumulation of acetylated alpha-tubulin [9] | Effect on PANC1 cell migration ([8]; compared to diluent-treated control cells)
1 | 3.3 nM | 107 nM | 1100 nM | 271 nM | 266 nM | 7000 nM |  | CCOC(=O)Nc1cccc(-c2csc(NC(=O)CCc3cc(C(=O)NO)no3)n2)c1 [Compound 5, (3-{2-[3-(3-Hydroxycarbamoyl-isoxazol-5-yl)-propionylamino]-thiazol-4-yl}-phenyl)-carbamic acid ethyl ester] | 2100 nM |  |  |  | 
2 | 5.4 nM | 215 nM | 2490 nM | 204 nM | 350 nM |  |  | O=C(NO)c1ccc(CNC(=O)c2cc(-c3ccc(NC(=O)C4CCCCC4)cc3)on2)cc1 [Compound 16, 5-[4-(Cyclohexanecarbonyl-amino)-phenyl]-isoxazole-3-carboxylic acid 4-hydroxycarbamoyl-benzylamide] |  |  |  |  | 
3 | 21.2 nM |  |  | 40100 nM |  |  | 76000 nM | CC(C)(C)C(=O)Nc1cccc(-c2cc(C(=O)NCCc3cc(C(=O)NO)no3)no2)c1 [Compound 10, 5-[2-({5-[3-(2,2-Dimethyl-propionylamino)-phenyl]-isoxazole-3-carbonyl}-amino)-ethyl]-isoxazole-3-carboxylic acid hydroxyamide] |  | − | − | accumulation of acetylated alpha-tubulin | 
4 | 41.2 nM | 448 nM | 1140 nM | 52.9 nM | 401 nM |  |  | CC(C)(C)OC(=O)Nc1ccc(-c2csc(NC(=O)CCCc3cc(C(=O)NO)no3)n2)cc1 [Compound 3, (4-{2-[4-(3-Hydroxycarbamoyl-isoxazol-5-yl)-butyrylamino]-thiazol-4-yl}-phenyl)-carbamic acid tert-butyl ester] |  |  |  |  | 
5 | 3050 nM | 41600 nM |  |  |  |  |  | O=C(NO)c1cc(CC(Cc2c[nH]c3ccccc23)NC(=O)C(F)(F)F)on1 (centres unmarked) [Compound 20, 5-[3-(1H-Indol-3-yl)-2-(2,2,2-trifluoro-acetylamino)-propyl]-isoxazole-3-carboxylic acid hydroxyamide] |  |  |  |  | 
6 | 4.4 nM | 7050 nM | 10400 nM | 4630 nM | 2930 nM | > 50000 nM |  | O=C(Nc1cccc(-c2cc(C(=O)NCCc3cc(C(=O)NO)no3)no2)c1)c1ccccc1 [Compound 12] | > 50000 nM | − | − | accumulation of acetylated alpha-tubulin | 
7 | 7.7 nM | 98800 nM |  |  |  | > 50000 nM | 54000 nM | CC(C)(C)OC(=O)Nc1cccc(-c2cc(C(=O)NCCc3cc(C(=O)NO)no3)no2)c1 [Compound 7, (3-{3-[2-(3-Hydroxycarbamoyl-isoxazol-5-yl)-ethylcarbamoyl]-isoxazol-5-yl}-phenyl)-carbamic acid tert-butyl ester] | > 50000 nM | + | + |  | 
8 | 101 nM | 5190 nM | 41300 nM | 12500 nM | 3910 nM | > 50000 nM |  | CCOC(=O)Nc1ccc(-c2cc(C(=O)NCCc3cc(C(=O)NO)no3)no2)cc1 [Compound 8, (4-{3-[2-(3-Hydroxycarbamoyl-isoxazol-5-yl)-ethylcarbamoyl]-isoxazol-5-yl}-phenyl)-carbamic acid ethyl ester] | 47000 nM |  |  |  | 
9 | 16.8 nM | 1770 nM | 2360 nM | 5290 nM | 6680 nM | 12000 nM |  | Nc1cccc(-c2cc(C(=O)NCCc3cc(C(=O)NO)no3)no2)c1 [Compound 9, 5-(2-{[5-(3-Amino-phenyl)-isoxazole-3-carbonyl]-amino}-ethyl)-isoxazole-3-carboxylic acid hydroxyamide] | 3300 nM | + | − | accumulation of acetylated alpha-tubulin | partial effect
10 | 6.7 nM |  |  |  |  | > 50000 nM |  | O=C(NO)c1cc(CCNC(=O)c2cc(-c3cccc(NC(=O)C4CCCCC4)c3)on2)on1 [Compound 11] | > 50000 nM | + | − | accumulation of acetylated alpha-tubulin | 
11 | 430 nM | 37800 nM |  |  |  |  | 46600 nM | O=C(NC(Cc1cc(C(=O)NO)no1)Cc1c[nH]c2ccccc12)c1ccc(Cl)cc1 (centres unmarked) [Compound 19, 5-[2-(4-Chloro-benzoylamino)-3-(1H-indol-3-yl)-propyl]-isoxazole-3-carboxylic acid hydroxyamide] |  |  |  |  | 
12 | 2.6 nM | 669 nM | 4300 nM | 191 nM | 212 nM |  |  | O=C(NO)c1ccc(CNC(=O)c2cc(-c3cccc(NC(=O)C4CCCCC4)c3)on2)cc1 [Compound 17, 5-[3-(Cyclohexanecarbonyl-amino)-phenyl]-isoxazole-3-carboxylic acid 4-hydroxycarbamoyl-benzylamide] |  |  |  |  | 
13 | 721 nM | 54100 nM |  |  |  |  | 49900 nM | COc1ccc(C(=O)NC(Cc2cc(C(=O)NO)no2)Cc2c[nH]c3ccccc23)cc1OC (centres unmarked) [Compound 21, 5-[2-(3,4-Dimethoxy-benzoylamino)-3-(1H-indol-3-yl)-propyl]-isoxazole-3-carboxylic acid hydroxyamide] |  |  |  |  | 
